Among the data in PubChem BioAssay (NCI) are GI50 and TGI values, retold here.

This experiment relates to MDA-MB-468 breast. As to the kind of experiment: growth of human tumour cells (NCI), 48 h.

Values joined by “and” are separate entries in the source; they are usually repeats but may differ in a detail not shown here. Identical values can stand only once.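 Cultured in 96-well plates, cells were exposed to test compound for 48 hours across five concentrations. Here, GI50 denotes the concentration required for 50% inhibition of growth. The concentration for full growth arrest is given as TGI.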

For `CC[C@H](Nc1nc(N)nc(N)c1Cl)c1nc2cccc(NCc3ccc(C(=O)NO)cc3)c2c(=O)n1-c1ccccc1`, the GI50 is 1.5 µM and the TGI was determined as 3.42 µM. Take `CC[C@@H](C)[C@H]([C@H](CC(=O)N1CCC[C@@H]1[C@@H](OC)[C@H](C)C(=O)N[C@H](Cc1ccccc1)c1nccs1)OC)N(C)C(=O)[C@H](NC(=O)[C@@H](C(C)C)N(C)C)C(C)C`: the TGI was 67.2 µM. On to `COc1cnc2c(c1)C(=O)c1c-2n(CCCN2CCNCC2)c(=O)c2cc(Cl)ccc12`, for which the GI50 is 0.552 µM and the TGI was 2.2 µM. Take `CCCCCCNC(=O)Oc1ccc(/C(=C(\C)c2ccccc2)c2ccc(OCCN3CCCCC3)cc2)cc1`: the GI50 is 1.74 µM and the TGI amounted to 5.17 µM. On to `CCCCCC(=O)OCC(=O)O[C@@H]1C[C@]2(C(C)C)O[C@@]1(C)[C@@H]1CC[C@@H](C)[C@H]1[C@@H]2OC(=O)/C=C/c1ccccc1`, for which the GI50 is 27 µM and the TGI is greater than 76.9 µM.

With `COc1cc(-c2nn(C(=O)NS(=O)(=O)c3ccc(C)cc3)cc2-c2ccncc2)ccc1Cl`, the GI50 is 2.91 µM and the TGI came to 19.8 µM. For `COC(=O)[C@@H](Cc1c[nH]c2ccccc12)NC(=O)/C=C/c1ccccc1`, the GI50 was 2.57 µM and the TGI is 25.9 µM. For `CCOC(=O)N1C/C(=C/c2ccc(OC)cc2)C(=O)/C(=C/c2ccc(OC)cc2)C1`, the GI50 is 1.54 µM and the TGI was found to be 4.04 µM.

Regarding `O=C(O)c1ccc(-c2ccc(C(=O)O)cc2I)c(I)c1`, the GI50 was greater than 100 µM and the TGI was greater than 100 µM. As to `O=C(NCCCNC(=O)OCc1ccc2c(Br)cc(Br)c(O)c2n1)OCc1ccc2c(Br)cc(Br)c(O)c2n1`, the GI50 is greater than 100 µM and the TGI is greater than 100 µM. In the case of `C[C@@]1(c2ncncc2F)NC(=O)c2cc(-c3cn[nH]c3)ccc21`, the GI50 was 21.6 µM and the TGI is 51.5 µM. Turning to `O=C(NCCN1CCOCC1)Nc1ccc(-c2cc3c(Nc4ccc(Oc5cccc(C(F)(F)F)c5)c(Cl)c4)ncnc3s2)cc1`, the GI50 is 1 µM and the TGI is 2.5 µM.

For `CN(C)CCOC1(Cc2ccc(Cl)cc2Cl)CCC(C(C)(C)C)CC1` (stereo not drawn), the GI50 is 1.78 µM and 1.77 µM; the TGI was 3.47 µM and 3.49 µM. `COc1ccccc1CNC(=O)C1c2ccccc2C(=O)N(CC(C)C)C1c1cccs1` (stereo not drawn): the GI50 was 12 µM and the TGI was 60.5 µM. With `CN(Cc1ccccc1)S(=O)(=O)/N=C1\NC(=O)NC1=C(Cl)Cl`, the GI50 is 0.427 µM and the TGI was determined as 12.8 µM. For the compound `O=C(CC1(O)C(=O)Nc2ccc(Br)cc21)c1ccc(C(=O)NCC2CCC3(CC2)OOC2(CCCCC2)OO3)cc1` (stereo not drawn), the GI50 is 3.13 µM and the TGI came to 20.3 µM. The like results for `C=CC[Se]C(=O)Cc1c(C)n(C(=O)c2ccc(Cl)cc2)c2ccc(OC)cc12` were, in that order, 1.87 µM and 3.74 µM. For `Oc1ccc(/C=N/Nc2nc3ccccc3s2)c(O)c1`, the GI50 was 2.08 µM and the TGI was 8.4 µM.

As for `COc1cccc(Cn2cc3c(c2)-c2oncc2CC3)c1`, the GI50 was 0.196 µM and the TGI is 0.582 µM. For `COc1ccc(NC(=O)c2sc3nc(C)c(C(O)c4ccc(OC)cc4)cc3c2N)cc1` (stereo not drawn), the GI50 is 0.145 µM and the TGI came out at 1.61 µM. For `Cc1[nH]nc2c1N=C(c1ccccc1F)c1cc(C#N)ccc1N2` the same measures were 0.0932 µM and 7.2 µM. As for `O=C(Nc1cccc2cccnc12)c1ccc(N2C(=O)[C@@H]3[C@H](C2=O)[C@@H]2C=C[C@H]3C2)cc1`, the GI50 was 14.2 µM and the TGI came to 81.4 µM. For `O=C1/C(=C/c2ccc([N+](=O)[O-])s2)Oc2ccccc21`, the GI50 is 0.39 µM and the TGI amounted to 2.17 µM. `NC(N)=N/N=C/c1cccc(Cl)c1Cl`: the GI50 was 1.52 µM and the TGI came out at 3.24 µM.

Consider `Cc1ccccc1-n1c(/C=C\c2ccccn2)nc2ccccc2c1=O`, for which the GI50 is 3.61 µM and the TGI was 32.2 µM.

With `CC(C)c1cc(CNc2nc(Nc3cc(C4CC4)[nH]n3)cc(N3CCN(C)CC3)n2)on1`, the GI50 was 1.3 µM; the TGI is 5.5 µM and 2.2 µM. Regarding `CN1CCN(Cc2ccc(NC(=O)c3[nH]ncc3Nc3ncnc4sccc34)cc2)CC1`, the GI50 is 0.38 µM and the TGI is 2.56 µM. For `COc1cc(C2CC(c3ccc4c(c3)OCO4)=NN2C(C)=O)cc(OC)c1OC` (stereo not drawn) the same measures were 0.289 µM and 1.71 µM.

As for `COc1ccc(NC(=O)Nc2ccc(Nc3nc(C)cc(Nc4ccc(C)cc4)n3)cc2)cc1`, the GI50 is 1.58 µM and the TGI was 3.1 µM. Consider `Cc1ccc(S(=O)(=O)NC(CCC(=O)Nc2ccccc2)C(=O)Nc2ccccc2)cc1` (stereo not drawn), for which the GI50 was 0.289 µM and the TGI stood at 1.13 µM. In the case of `COc1cc(-c2nc(SCC(=O)Nc3ccc(C(C)=O)cc3)[nH]c(=O)c2C#N)cc(OC)c1OC`, the GI50 was 25.4 µM and the TGI is greater than 100 µM. As for `CCCC(=O)NC(c1ccc2c(c1)OCO2)c1ccc2cccnc2c1O` (stereo not drawn), the GI50 is 0.388 µM and the TGI was 2.53 µM. The like results for `CCCC1CCC(O)(C(C)(O)C(=O)NC2C(=O)N3NCCCC3C(=O)N(O)C(C)C(=O)N3NCCCC3C(=O)N3NCC(O)CC3C(=O)NC(C)C(=O)OC2C(C)C)OC1CC` (stereo not drawn) were, in that order, greater than 25 µM and greater than 25 µM.

In the case of `N=C(N)c1ccc(-c2ccc(-c3ccc(Cl)cn3)s2)cc1`, the GI50 was 1.6 µM and the TGI was 3.41 µM.

For `CCn1c(-c2nonc2N)nc2c(C#CC(C)(C)O)nc(O[C@@H](CN)c3ccccc3)cc21`, the GI50 is 0.0173 µM and the TGI was 0.435 µM. With `COc1cc2nc(-c3ccc(-n4cncc4-c4ccc(N)cc4)cc3)sc2c(OC)c1OC`, the GI50 is 1.82 µM and the TGI turned out to be 4.47 µM.

Turning to `O=C1C=CN(C2OC(CO)C(O)C2O)C(=O)C1` (stereo not drawn), the GI50 is greater than 2500 µM and the TGI is greater than 2500 µM. Turning to `CS(=O)c1ccc(-c2nc(-c3ccc(F)cc3)c(-c3ccncc3)[nH]2)cc1` (stereo not drawn), the GI50 was 13.4 µM and the TGI was greater than 60.6 µM.

As for `CCCCN(CCCC)CC(C)(C)C(O)c1ccc(OC)c2ccccc12` (stereo not drawn), the GI50 was 1.56 µM and the TGI worked out at 3.97 µM. `COc1cccc2c1cc([N+](=O)[O-])c1c(C(=O)O)cc3c(c12)OCO3`: the GI50 was 8.57 µM and the TGI came out at 26.1 µM. `COC(=O)c1c2c(c(C)[n+]([O-])c1C)C(=O)C(NCc1cccc(OC)c1)=CC2=O`: the GI50 is 1.52 µM and the TGI was determined as 3.84 µM. Take `BrC(Br)(Br)c1cnc2ccccc2n1`: the GI50 was 1.15 µM and the TGI stood at 2.76 µM.

In the case of `Oc1ccc(Br)cc1/C=N/NC(=S)NC12CC3CC(CC(C3)C1)C2`, the GI50 is 1.8 µM and the TGI turned out to be 4.77 µM. In the case of `CN(C)CCOc1nc2c3cccnc3cc(-c3cccc(Cl)c3)c2c2ncccc12`, the GI50 is 1.43 µM and the TGI came out at 2.86 µM. For `COc1ccc2[nH]c(-c3cccc(N(C)C)c3)cc(=O)c2c1` the same measures were 13.3 µM and greater than 100 µM. In the case of `CCCC[P+](c1ccccc1)(c1ccccc1)c1ccccc1`, the GI50 was 0.219 µM and the TGI amounted to 2.37 µM.

As to `COc1ccc(C2C(c3ccccc3)C(=O)N2c2cc(OC)c(OC)c(OC)c2)cc1I` (stereo not drawn), the GI50 was 0.373 µM and the TGI was greater than 100 µM.
